{"source": "patent US12559553B2", "about": "“IL-31 modulators for treating FXR-induced pruritus” (Gilead Sciences, Inc., priority 2021, dated 2026)", "key": {"[1]": {"test_system": "IL-31", "test": "Serum IL-31 (SIMOA assay), Phase 2 study of cilofexor in non-cirrhotic NASH patients", "assay_type": "in vivo, human", "settings": "for Serum IL-31, median (IQR) / Increase of IL-31 in patients with grade 2 or 3 pruritus versus the others: NASH", "protocol": "Serum IL-31 (SIMOA©assay; Myriad, Austin, TX) was measured in a Phase 2 study of cilofexor (CILO, a non-steroidal FXR agonist) in non-cirrhotic NASH (n=140) patients. Patients were randomized 2:2:1 to CILO 100 mg, 30 mg, or placebo daily. Associations between serum IL-31 and pruritus-related adverse events and patient-reported outcomes (Visual Analog Scale [VAS] and 5-D Itch) were determined."}, "[2]": {"test_system": "IL-31", "test": "Serum IL-31 pre-dose and post-dose, CILO phase 1 study in healthy volunteers", "assay_type": "in vivo, human", "protocol": "In the CILO phase 1 study, serum IL-31 levels were assessed in pre-dose and post-dose (from 1 to 8 hr) samples from the healthy volunteers (HVs) with placebo or CILO 30 mg, 100 mg or 300 mg. The HVs with CILO 100 mg or 300 mg had elevated serum IL-31 levels with peak concentration at 4-6 hr post-dose samples (data not shown). A similar intensive sampling study was also performed in the CILO NASH study. IL-31 levels in the serially collected samples were compared in NASH patients and HVs with CILO 100 mg. In HVs with CILO 100 mg, serum IL-31 achieved the peak concentration of 0.22 pg/mL and 2.6 fold increase from pre-dose (data not shown). NASH patients with the same dose had more increased serum IL-31 than HV."}, "[3]": {"test_system": "IL-31", "test": "Serum IL-31 in serially collected samples (intensive sampling), CILO NASH study", "assay_type": "in vivo, human", "settings": "NASH patients, CILO 100 mg", "protocol": "A similar intensive sampling study was also performed in the CILO NASH study. IL-31 levels in the serially collected samples were compared in NASH patients and HVs with CILO 100 mg. In HVs with CILO 100 mg, serum IL-31 achieved the peak concentration of 0.22 pg/mL and 2.6 fold increase from pre-dose (data not shown). NASH patients with the same dose had more increased serum IL-31 than HV. […] Activation of FXR in the intestinal epithelial cells induces FGF-19 secretion. FGF-19 suppressed CYP7A1 expression, which is a key enzyme to […] 7α-hydroxycholesterol. 7α-hydroxycholesterol is metabolized into 7α-hydroxy-4-cholesten-3-one (C4). The increased FGF-19 and reduced C4 levels in circulation are target engagement assessments for FXR agonists."}, "[4]": {"test_system": "FGF-19", "test": "FGF-19 target engagement in healthy volunteers", "assay_type": "in vivo, human", "settings": "CILO 100 mg, 4 hr post-dose", "text": "(§1) Activation of FXR in the intestinal epithelial cells induces FGF-19 secretion. FGF-19 suppressed CYP7A1 expression, which is a key enzyme to […] 7α-hydroxycholesterol. 7α-hydroxycholesterol is metabolized into 7α-hydroxy-4-cholesten-3-one (C4). The increased FGF-19 and reduced C4 levels in circulation are target engagement assessments for FXR agonists."}, "[5]": {"test_system": "FGF-19", "test": "FGF-19 target engagement in NASH patients", "assay_type": "in vivo, human", "text": "as §1"}, "[6]": {"test_system": "7α-hydroxy-4-cholesten-3-one (C4)", "test": "C4 levels in circulation, CILO NASH study", "assay_type": "in vivo, human", "text": "as §1"}, "[7]": {"test": "Pruritus adverse events, Phase 2 study of cilofexor in PSC patients", "assay_type": "in vivo, human", "protocol": "(§2) Serum IL-31 (SIMOA® assay; Myriad, Austin, TX) was measured in two Phase 2 studies of cilofexor (CILO, a non-steroidal FXR agonist) in PSC (n=52) and PBC (n=71). In all studies, patients were randomized 2:2:1 to CILO 100 mg, 30 mg, or placebo daily. Associations between serum IL-31 and pruritus-related adverse events and patient-reported outcomes (Visual Analog Scale [VAS] and 5-D Itch) were determined."}, "[8]": {"test_system": "IL-31", "test": "Serum IL-31 (SIMOA assay), Phase 2 study of cilofexor in PSC patients", "assay_type": "in vivo, human", "protocol": "as §2"}, "[9]": {"test_system": "IL-31", "test": "Serum IL-31 (SIMOA assay), Phase 2 study of cilofexor in PBC patients", "assay_type": "in vivo, human", "protocol": "Serum IL-31 (SIMOA® assay; Myriad, Austin, TX) was measured in two Phase 2 studies of cilofexor (CILO, a non-steroidal FXR agonist) in PSC (n=52) and PBC (n=71). In all studies, patients were randomized 2:2:1 to CILO 100 mg, 30 mg, or placebo daily. Associations between serum IL-31 and pruritus-related adverse events and patient-reported outcomes (Visual Analog Scale [VAS] and 5-D Itch) were determined. In PBC, IL-31 correlated to VAS (ρ=0.42, p<0.001) and 5-D Itch (ρ=0.58, p<0.001) (Table 6)."}, "[10]": {"test_system": "IL-4", "test": "Serum IL-4 and other inflammatory markers in the CILO NASH study", "assay_type": "in vivo, human", "settings": "NASH patients", "protocol": "IL-31 is expressed and secreted by activated T helper 2 (Th2) cell. IL-4, a type II immune cytokine, was associated with activation of Th2 cells and serum IL-31 levels in patients with atopic dermatitis. Serum IL-4 levels were assessed in the CILO NASH and PSC studies."}, "[11]": {"test": "Cholestasis (ALP and BA levels) in PSC and PBC patients", "assay_type": "in vivo, human"}, "[12]": {"test_system": "human IL-31", "test": "IL-31 in chimeric PXB mice with human hepatocytes treated with OCA", "assay_type": "in vivo", "settings": "OCA 10 mg/kg QD for 18 days"}, "[13]": {"settings": "serially collected blood samples, 100 mg CILO, 6 hr post-dose"}, "[14]": {"settings": "PBC, serially collected blood samples, 100 mg CILO, 5 hr post-dose"}}, "note": "Values joined by “and” are separate entries in the source; they are usually repeats but may differ in a detail not shown here. Equal entries are not always repeated. “Also recorded” adds a separate entry of the source.", "data": [{"compound": "O=C(O)c1ccnc(N2CC(O)(c3ccc(OCc4c(-c5c(Cl)cccc5Cl)noc4C4CC4)cc3Cl)C2)c1", "note": "[CILO, cilofexor]", "values": [{"measurement": "Effect on serum IL-31", "setting": "[1]; NASH patients, week 1 to week 24, 30 mg and 100 mg", "value": "increased serum IL-31 in a dose-dependent manner"}, {"measurement": "Serum IL-31, median (IQR)", "setting": "[1]; CILO 30 mg, Baseline", "value": 0.09, "unit": "pg/mL"}, {"measurement": "Serum IL-31, median (IQR)", "setting": "[1]; CILO 30 mg, Week 1", "value": 0.15, "unit": "pg/mL"}, {"measurement": "Serum IL-31, median (IQR)", "setting": "[1]; CILO 30 mg, Week 4", "value": 0.105, "unit": "pg/mL"}, {"measurement": "Serum IL-31, median (IQR)", "setting": "[1]; CILO 30 mg, Week 8", "value": 0.14, "unit": "pg/mL"}, {"measurement": "Serum IL-31, median (IQR)", "setting": "[1]; CILO 30 mg, Week 12", "value": 0.145, "unit": "pg/mL"}, {"measurement": "Serum IL-31, median (IQR)", "setting": "[1]; CILO 30 mg, Week 24", "value": "0.15 (0.062, 0.27) pg/mL and 0.15 pg/mL"}, {"measurement": "Serum IL-31, median (IQR)", "setting": "[1]; CILO 100 mg, Baseline", "value": 0.083, "unit": "pg/mL"}, {"measurement": "Serum IL-31, median (IQR)", "setting": "[1]; CILO 100 mg, Week 1", "value": 0.21, "unit": "pg/mL"}, {"measurement": "Serum IL-31, median (IQR)", "setting": "[1]; CILO 100 mg, Week 4", "value": 0.24, "unit": "pg/mL"}, {"measurement": "Serum IL-31, median (IQR)", "setting": "[1]; CILO 100 mg, Week 8", "value": 0.26, "unit": "pg/mL"}, {"measurement": "Serum IL-31, median (IQR)", "setting": "[1]; CILO 100 mg, Week 12", "value": 0.26, "unit": "pg/mL"}, {"measurement": "Serum IL-31, median (IQR)", "setting": "[1]; CILO 100 mg, Week 24", "value": "0.26 (0.13, 0.82) pg/mL and 0.26 pg/mL"}, {"measurement": "Increase of IL-31 in patients with grade 2 or 3 pruritus versus the others", "setting": "[1]; W1", "value": 5.1, "unit": "fold"}, {"measurement": "Increase of IL-31 in patients with grade 2 or 3 pruritus versus the others", "setting": "[1]; W4", "value": 2.9, "unit": "fold"}, {"measurement": "Increase of IL-31 in patients with grade 2 or 3 pruritus versus the others", "setting": "[1]; W8", "value": 3.8, "unit": "fold"}, {"measurement": "Increase of IL-31 in patients with grade 2 or 3 pruritus versus the others", "setting": "[1]; W12", "value": 4.5, "unit": "fold"}, {"measurement": "Increase of IL-31 in patients with grade 2 or 3 pruritus versus the others", "setting": "[1]; W24", "value": 7, "unit": "fold"}, {"measurement": "Serum IL-31 peak concentration", "setting": "[2]; CILO 100 mg", "value": 0.22, "unit": "pg/mL"}, {"measurement": "Serum IL-31 levels post-dose", "setting": "[2]; CILO 100 mg or 300 mg", "value": "elevated"}, {"measurement": "Time of peak serum IL-31 concentration post-dose", "setting": "[2]; CILO 100 mg or 300 mg", "value": "4 to 6", "unit": "h"}, {"measurement": "Serum IL-31 increase from pre-dose", "setting": "[2]; CILO 100 mg, at peak", "value": 2.6, "unit": "fold"}, {"measurement": "Serum IL-31 peak concentration", "setting": "[3]; 4-6 hr post-dose", "value": "13 pg/mL and 12 to 13 pg/mL"}, {"measurement": "Serum IL-31 increase from pre-dose", "setting": "[3]; at peak", "value": "23.6 fold and 21.8-23.6 fold"}, {"measurement": "FGF-19 peak concentration", "setting": "[4]", "value": 591.6, "unit": "pg/mL"}, {"measurement": "FGF-19 peak concentration", "setting": "[5]; NASH patients, CILO 100 mg, 4 hr post-dose", "value": 829.7, "unit": "pg/mL"}, {"measurement": "FGF-19 increase from pre-dose", "setting": "[5]; [13]", "value": 45.9, "unit": "fold"}, {"measurement": "FGF-19 peak concentration", "setting": "[5]; [13]", "value": "around 1826 pg/mL"}, {"measurement": "FGF-19 median at pre-dose", "setting": "[5]; serially collected blood samples, 100 mg CILO, pre-dose", "value": 39.8, "unit": "pg/mL"}, {"measurement": "C4 levels compared to placebo", "setting": "[6]; W24, CILO 30 mg", "value": "significantly declined"}, {"measurement": "C4 levels compared to placebo", "setting": "[6]; W24, CILO 100 mg", "value": "significantly declined"}, {"measurement": "Effect on pruritus", "setting": "[7]", "value": "did not exacerbate pruritus"}, {"measurement": "Any Grade pruritus, patients", "setting": "[7]; CILO 30 mg", "value": 5}, {"measurement": "Grade 1 pruritus, patients", "setting": "[7]; CILO 30 mg", "value": 2}, {"measurement": "Grade 2 pruritus, patients", "setting": "[7]; CILO 30 mg", "value": 1}, {"measurement": "Grade 3 pruritus, patients", "setting": "[7]; CILO 30 mg", "value": 2}, {"measurement": "Patients who reported grade 2 or 3 pruritus", "setting": "[7]; CILO 30 mg", "value": 3, "unit": "subjects"}, {"measurement": "Any Grade pruritus, patients", "setting": "[7]; CILO 100 mg", "value": 8}, {"measurement": "Grade 1 pruritus, patients", "setting": "[7]; CILO 100 mg", "value": 5}, {"measurement": "Grade 2 pruritus, patients", "setting": "[7]; CILO 100 mg", "value": 1}, {"measurement": "Grade 3 pruritus, patients", "setting": "[7]; CILO 100 mg", "value": 2}, {"measurement": "Patients who reported grade 2 or 3 pruritus", "setting": "[7]; CILO 100 mg", "value": 3, "unit": "subjects"}, {"measurement": "Dose-dependent effect on serum IL-31", "setting": "[8]", "value": "not observed"}, {"measurement": "Effect on serum IL-31 levels", "setting": "[8]; 12-week treatment", "value": "did not alter; also recorded: no effect"}, {"measurement": "Dose-dependent effect on serum IL-31", "setting": "[9]; PBC patients", "value": "not observed"}, {"measurement": "Effect on serum IL-31 levels", "setting": "[9]; PBC patients, fasting samples at Weeks 1, 4 and 12, compared to placebo", "value": "did NOT change; also recorded: no effect; also recorded: did not alter"}, {"measurement": "IL-31 increase from pre-dose", "setting": "[9]; [14]", "value": 2.5, "unit": "fold"}, {"measurement": "IL-31 level post-dose", "setting": "[9]; [14]", "value": 7.4, "unit": "pg/mL"}, {"measurement": "IL-31 median level at pre-dose", "setting": "[9]; PBC, serially collected blood samples, 100 mg CILO, pre-dose", "value": 3, "unit": "pg/mL"}, {"measurement": "Effect on other inflammatory markers (IL-4 and IL-18)", "setting": "[10]", "value": "without changing"}, {"measurement": "Effect on serum IL-4", "setting": "[10]", "value": "did not elevate"}, {"measurement": "Effect on cholestasis (ALP and BA levels)", "setting": "[11]", "value": "improved cholestasis"}]}, {"compound": "CC[C@H]1[C@@H](O)[C@@H]2[C@H](CC[C@]3(C)[C@@H]([C@H](C)CCC(=O)O)CC[C@@H]23)[C@@]2(C)CC[C@@H](O)C[C@@H]12", "note": "[OCA, obeticholic acid]", "values": [{"measurement": "Hepatic IL-31 mRNA expression vs vehicle", "setting": "[12]", "value": 7.8, "unit": "fold"}]}]}
